From patent publication US8071797B2 (priority 2008, dated 2011)

These compounds were tested against T1, HCV polymerase (NS5B570n-Con1) (Hepatitis C virus genotype 1b, UniProt Q9WMX2) (assay: HCV NS5B RNA polymerase activity assay). Conditions: IC50 NS5B polymerase assay, Table I.
T1 construct: contains a 21 amino acid deletion at the C-terminus relative to the full-length HCV polymerase; 6-histidine (N); made in house; host or cells: E. coli BL21 (DE) pLysS
Assay type: biochemical, HCV Con1 strain
Experimental: The enzymatic activity of HCV polymerase (NS5B570n-Con1) was measured as the incorporation of radiolabeled nucleotide monophosphates into acid insoluble RNA products. Unincorporated radiolabeled substrate was removed by filtration and scintillant was added to the washed and dried filter plate containing radiolabeled RNA product. The amount of RNA product generated by NS5B570-Con1 at the end of the reaction was directly proportional to the amount of light emitted by the scintillant.
The N-terminal 6-histidine tagged HCV polymerase, derived from HCV Con1 strain, genotype 1b (NS5B570n-Con1) contains a 21 amino acid deletion at the C-terminus relative to the full-length HCV polymerase and was purified from E. coli strain BL21 (DE) pLysS. The construct, containing the coding sequence of HCV NS5B Con1 (GenBank accession number AJ242654) was inserted into the plasmid construct pETI 7b, downstream of a T7 promoter expression cassette and transformed into E. coli. A single colony was grown overnight as a starter culture and later used inoculate 10 L of LB media supplemented with 100 μg/mL ampicillin at 37° C. Protein expression was induced by the addition of 0.25 mM isopropyl-β-D-thiogalactopyranoside (IPTG) when optical density at […] of the culture was between 0.6 and 0.8 and cells were harvested after 16 to 18 h at 30° C. NS5B570n-Con1 was purified to homogeneity using a three-step protocol including subsequent column chromatography on Ni-NTA, SP-Sepharose HP and Superdex 75 resins.
Each 50 μl enzymatic reaction contained 20 nM RNA template derived from the complementary sequence of the Internal Ribosome Entry Site (cIRES), 20 nM NS5B570n-Con1 enzyme, 0.5 μCi of tritiated UTP (Perkin Elmer catalog no. TRK-412; specific activity: 30 to 60 Ci/mmol; stock solution concentration from 7.5×10^-5 M to 20.6×10^-6 M), 1 μM each ATP, CTP, and GTP, 40 mM Tris-HCl pH 8.0, 40 mM NaCl, 4 mM DTT (dithiothreitol), 4 mM MgCl2, and 5 μl of compound serial diluted in DMSO. Reaction mixtures were assembled in 96-well filter plates (cat #MADVN0B, Millipore Co.) and incubated for 2 h at 30° C. Reactions were stopped by addition of 10% final (v/v) trichloroacetic acid and incubated for 40 min at 4° C. Reactions were filtered, washed with 8 reaction volumes of 10% (v/v) trichloroacetic acetic acid, 4 reaction volumes of 70% (v/v) ethanol, air dried, and 25 μl of scintillant (Microscint 20, Perkin-Elmer) was added to each reaction well.
The amount of light emitted from the scintillant was converted to counts per minute (CPM) on a Topcount® plate reader (Perkin-Elmer, Energy Range: Low, Efficiency Mode Normal, Count Time: 1 min, Background Subtract: none, Cross talk reduction: Off).
Data was analyzed in Excel® (Microsoft®) and ActivityBase® (idbsg). The reaction in the absence of enzyme was used to determine the background signal, which was subtracted from the enzymatic reactions. Positive control reactions were performed in the absence of compound, from which the background corrected activity was set as 100% polymerase activity. All data was expressed as a percentage of the positive control. The compound concentration at which the enzyme-catalyzed rate of RNA synthesis was reduced by 50% (IC50) was calculated by fitting
[formula] equation (t) to the data.where “Y” corresponds to the relative enzyme activity (in %), “% Min” is the residual relative activity at saturating compound concentration, “% Max” is the relative maximum enzymatic activity, “X” corresponds to the compound concentration, and “S” is the Hill coefficient (or slope).

| SMILES | IC50 [nM] |
| --- | --- |
| CNC(=O)c1c(-c2ccc(Oc3ccc(F)cc3)cc2)oc2cc(C(C)(C)O)c(OC)cc12 [Compound I-103] | 37 |
| CNC(=O)c1c(-c2ccc(Oc3ccc(F)cc3)cc2)oc2cc(N(C3CCNCC3)S(C)(=O)=O)c(C3CC3)cc12 [Compound I-76] | 376 |
| CNC(=O)c1c(-c2ccc(Nc3ccc(C)cc3)cc2)oc2cc(N(CCO)S(C)(=O)=O)c(OC)cc12 [Compound I-20] | 92 |
| CNC(=O)c1c(-c2ccc(Oc3ccc(F)cc3)cc2)oc2cc(N(CC(C)(C)O)S(C)(=O)=O)c(C3CC3)cc12 [Compound I-78] | 55 |
| CNC(=O)c1c(-c2ccc(Oc3ccc(F)cc3)cc2)oc2cc(N(CCNS(C)(=O)=O)S(C)(=O)=O)c(C3CC3)cc12 [Compound I-80] | 179 |
| CNC(=O)c1c(-c2ccc(Nc3ccc(F)c(Cl)c3)cc2)oc2cc(N(CCO)S(C)(=O)=O)c(OC)cc12 [Compound I-15] | 82 |
| CNC(=O)c1c(-c2ccc(Oc3ccccn3)cc2)oc2cc(N(CCO)S(C)(=O)=O)c(OC)cc12 [Compound I-127, 6-[(2-Hydroxy-ethyl)-methanesulfonyl-amino]-5-methoxy-2-[4-(pyridin-2-yloxy)-phenyl]-benzofuran-3-carboxylic acid methylamide] | 611 |
| CNC(=O)c1c(-c2ccc(Nc3cccc(F)c3F)cc2)oc2cc(N(CCO)S(C)(=O)=O)c(OC)cc12 [Compound I-21] | 59 |
| CNC(=O)c1c(-c2ccc(Oc3ccc(F)cc3)cc2)oc2cc(N(CCS(N)(=O)=O)S(C)(=O)=O)c(C3CC3)cc12 [Compound I-119, 5-Cyclopropyl-2-[4-(4-fluoro-phenoxy)-phenyl]-6-[methanesulfonyl-(2-sulfamoyl-ethyl)-amino]-benzofuran-3-carboxylic acid methylamide] | 14 |
| CNC(=O)c1c(-c2ccc(Oc3ccc(F)cc3)cc2)oc2cc(N(CC(C)O)S(C)(=O)=O)c(C3CC3)cc12 (stereo not drawn) [Compound I-68] | 26 |
| CCN(c1cc2oc(-c3ccc(Oc4ccc(F)cc4)cc3)c(C(=O)NC)c2cc1OC)S(C)(=O)=O [Compound I-24] | 130 |
| CNC(=O)c1c(-c2ccc(Nc3cccc(F)c3)cc2)oc2cc(N(CCO)S(C)(=O)=O)c(OC(C)C)cc12 [Compound I-29] | 94 |
| CNC(=O)c1c(-c2ccc(Oc3ccc(F)cc3)cc2)oc2cc(N(Cc3ccncc3)S(C)(=O)=O)c(C3CC3)cc12 [Compound I-71] | 9 |
| CNC(=O)c1c(-c2ccc(Oc3ccc(F)cc3)cc2)oc2cc(N(C(C)CN)S(C)(=O)=O)c(C3CC3)cc12 (stereo not drawn) [Compound I-95] | 60 |
| CNC(=O)c1c(-c2ccc(Oc3ccc(F)cc3)cc2)oc2cc(N(CCOC)S(C)(=O)=O)c(C3CC3)cc12 [Compound I-57] | 110 |
| CNC(=O)c1c(-c2ccc(Oc3ccccc3F)cc2)oc2cc(N(C)S(C)(=O)=O)c(C)cc12 [Compound I-59, 2-[4-(2-Fluoro-phenoxy)-phenyl]-6-(methanesulfonyl-methyl-amino)-5-methyl-benzofuran-3-carboxylic acid methylamide] | 93 |
| CNC(=O)c1c(-c2ccc(Oc3ccc(F)cc3F)cc2)oc2cc(N(CCO)S(C)(=O)=O)c(C3CC3)cc12 [Compound I-58] | 85 |
| CNC(=O)c1c(-c2ccc(Oc3ccc(Cl)cc3)cc2)oc2cc(N(CCO)S(C)(=O)=O)c(OC(C)C)cc12 [Compound I-27] | 70 |
| CNC(=O)c1c(-c2ccc(Nc3cccnc3)cc2)oc2cc(N(CCO)S(C)(=O)=O)c(OC)cc12 [Compound I-122] | 2050 |
| CNC(=O)c1c(-c2ccc(Oc3ccc(F)cc3)cc2)oc2cc(N(C3CCOCC3)S(C)(=O)=O)c(C3CC3)cc12 [Compound I-72] | 591 |

| SMILES | IC50 [nM] |
| --- | --- |
| CNC(=O)c1c(-c2ccc(Oc3ccc(F)cc3)cc2)oc2cc(N(CCCC#N)S(C)(=O)=O)c(C3CC3)cc12 [Compound I-96] | 7 |
| CNC(=O)c1c(-c2ccc(Oc3ccc(F)cc3)cc2)oc2cc(C3CCCN3C(C)=O)c(OC)cc12 (stereo not drawn) [Compound I-109, 6-(1-acetyl-pyrrolidin-2-yl)-2-[4-(4-fluoro-phenoxy)-phenyl]-5-methoxy-benzofuran-3-carboxylic acid methylamide] | 44 |
| CNC(=O)c1c(-c2ccc(Nc3cccc(OC)c3)cc2)oc2cc(N(CCO)S(C)(=O)=O)c(OC)cc12 [Compound I-7] | 136 |
| CNC(=O)c1c(-c2ccc(Oc3ccc(F)cc3)cc2)oc2cc(N(CCCCN)S(C)(=O)=O)c(C3CC3)cc12 [Compound I-92] | 56 |
| CNC(=O)c1c(-c2ccc(Oc3ccccc3F)cc2)oc2cc(N(C)S(C)(=O)=O)c(OC)cc12 [Compound I-36] | 48 |
| CNC(=O)c1c(-c2ccc(Oc3ccccc3)cc2)oc2cc(C3CCCN3)c(C3CC3)cc12 (stereo not drawn) [Compound I-90, 5-5-Cyclopropyl-2-(4-phenoxy-phenyl)-6-pyrrolidin-2-yl-benzofuran-3-carboxylic acid methylamideyclopropyl-2-(4-phenoxy-phenyl)-6-pyrrolidin-2-yl-benzofuran-3-carboxylic acid methylamide] | 254 |
| CNC(=O)c1c(-c2ccc(Oc3ccc(F)cc3)cc2)oc2cc(N(CCCS(N)(=O)=O)S(C)(=O)=O)c(C3CC3)cc12 [Compound I-118] | 7 |
| CNC(=O)c1c(-c2ccc(Oc3ccc(F)c(F)c3)cc2)oc2cc(N(CCO)S(C)(=O)=O)c(OC(C)C)cc12 [Compound I-50] | 261 |
| CNC(=O)c1c(-c2ccc(Oc3ccc(F)cc3)cc2)oc2cc(N(C3CCOC3)S(C)(=O)=O)c(C3CC3)cc12 (stereo not drawn) [Compound I-84] | 155 |
| CCN(c1cc2oc(-c3ccc(Oc4ccc(F)cc4)cc3)c(C(=O)NC)c2cc1C1CC1)S(C)(=O)=O [Compound I-42] | 143 |
| CCc1cc2c(C(=O)NC)c(-c3ccc(Oc4ccc(F)cc4)cc3)oc2cc1N(CCO)S(C)(=O)=O [Compound I-51, 5-Ethyl-2-[4-(4-fluoro-phenoxy)-phenyl]-6-[(2-hydroxy-ethyl)-methanesulfonyl-amino]-benzofuran-3-carboxylic acid methylamide] | 88 |
| CNC(=O)c1c(-c2ccc(Nc3cc(F)cc(F)c3)cc2)oc2cc(N(CCO)S(C)(=O)=O)c(OC)cc12 [Compound I-16] | 172 |
| CNC(=O)c1c(-c2ccc(Oc3ccc(F)cc3)cc2)oc2cc(N(CCO)S(C)(=O)=O)c(C)cc12 [Compound I-55] | 44 |
| CNC(=O)c1c(-c2ccc(Nc3c(F)cccc3F)cc2)oc2cc(N(CCO)S(C)(=O)=O)c(OC)cc12 [Compound I-25] | 123 |
| CNC(=O)c1c(-c2ccc(Oc3ccc(F)cc3)cc2)oc2cc(N(Cc3cncnc3)S(C)(=O)=O)c(C3CC3)cc12 [Compound I-88] | 26 |
| CNC(=O)c1c(-c2ccc(Oc3ccccc3)cc2)oc2cc(-c3c(C)noc3C)c(C3CC3)cc12 [Compound I-85, 5-Cyclopropyl-6-(3,5-dimethyl-isoxazol-4-yl)-2-(4-phenoxy-phenyl)-benzofuran-3-carboxylic acid methylamide] | 344 |
| CNC(=O)c1c(-c2ccc(Oc3ccc(F)cc3)cc2)oc2cc(N(CCC[S+](C)[O-])S(C)(=O)=O)c(C3CC3)cc12 (stereo not drawn) [Compound I-121] | 5 |
| CNC(=O)c1c(-c2ccc(Oc3cccc(C#N)c3)cc2)oc2cc(N(CCO)S(C)(=O)=O)c(OC)cc12 [Compound I-47] | 338 |
| CNC(=O)c1c(-c2ccc(Oc3ccc(F)cc3)cc2)oc2cc(N(C3CCNC3)S(C)(=O)=O)c(C3CC3)cc12 (stereo not drawn) [Compound I-91, 5-Cyclopropyl-2-[4-(4-fluoro-phenoxy)-phenyl]-6-(methanesulfonyl-pyrrolidin-3-yl-amino)-benzofuran-3-carboxylic acid methylamide] | 24 |
